Measured values as given in patent US9045468B2, “2,5-methano- and 2,5-ethano-tetrahydrobenzazepine derivatives and use thereof to block reuptake of norepinephrine, dopamine, and serotonin” (Albany Molecular Research, Inc., priority 2010, dated 2015).

Legend:
[1] = biological target: hNET (Homo sapiens (Human), UniProt P23975); assay: NET radioligand binding assay ([3H]nisoxetine, HEK-293 membranes); conditions: recombinant HEK-293 membranes, [3H]nisoxetine; read-out: Binding Affinity (IC50, nM) NET
hNET, sequence (P23975 whole entry): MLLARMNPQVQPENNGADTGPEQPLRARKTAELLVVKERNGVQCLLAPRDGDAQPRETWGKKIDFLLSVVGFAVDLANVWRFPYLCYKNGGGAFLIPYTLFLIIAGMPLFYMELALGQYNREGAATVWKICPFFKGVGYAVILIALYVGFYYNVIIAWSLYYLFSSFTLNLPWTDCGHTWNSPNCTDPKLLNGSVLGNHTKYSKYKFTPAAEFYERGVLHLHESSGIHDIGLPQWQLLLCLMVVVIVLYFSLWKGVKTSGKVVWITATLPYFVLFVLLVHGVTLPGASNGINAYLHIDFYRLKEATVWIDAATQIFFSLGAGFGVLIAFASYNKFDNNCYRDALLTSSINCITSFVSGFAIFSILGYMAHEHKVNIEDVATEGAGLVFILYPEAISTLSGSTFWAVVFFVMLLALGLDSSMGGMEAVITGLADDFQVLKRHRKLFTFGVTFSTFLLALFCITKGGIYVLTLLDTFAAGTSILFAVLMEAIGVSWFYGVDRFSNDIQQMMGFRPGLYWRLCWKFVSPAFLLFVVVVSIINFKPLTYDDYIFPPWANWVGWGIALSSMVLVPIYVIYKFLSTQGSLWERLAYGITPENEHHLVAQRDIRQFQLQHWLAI

[2] = tested on: NET; assay: Ex vivo transporter occupancy assay, NET ([3H]nisoxetine, brain tissue); format: in vivo; conditions: dosed orally, time until sacrifice 3 h
From the text: (§1) The general procedure for brain tissue collection and transporter occupancy assessment is briefly described as follows. Mice were sacrificed by asphyxiation in CO2, rats by decapitation and dogs by IV injection of euthanasia solution. For mice and rats, after the brains were removed from the skull, the forebrain tissue (removal of the brainstem and cerebellum) was used for SERT, NET, and DAT occupancy assessment. In dogs, the striatum was dissected for DAT occupancy and the remaining forebrain tissue (without the striatum, brainstem, and cerebellum) was used for SERT and NET occupancy assessment. The brain tissues were frozen in chilled isopentane and stored at −80° C. until homogenization.
(§2) The brain tissues were thawed and then homogenized using a polytron homogenizer (Kinematica). Sample aliquots were frozen immediately and stored at −80° C. Protein content was measured for each sample using a Coomassie protein assay kit (Pierce).
(§3) On the day of ex vivo binding for occupancy assessment, frozen sample aliquots were thawed and needle homogenized, and 100 μg of the tissue was incubated for SERT, NET, and DAT binding under assay conditions summarized in Table 1. […] The filters were washed twice with ice-cold incubation buffer, punched into a clear plate prior to the addition of 200 ul scintillation fluid per well. Radioligand was measured using a Wallac Microbeta liquid scintillation counter.
(§4) The specific binding was calculated by subtracting the value of the non-specific binding from that of the total binding in each sample. The percent occupancy was calculated as (1−specific binding in drug treated/specific binding in vehicle treated)×100%. […] Nonlinear regression was performed using GraphPad Prism version 3.00 (GraphPad Software, San Diego, Calif.).

[3] = biological target: hSERT (Homo sapiens (Human), UniProt P31645); assay: SERT radioligand binding assay ([125I]RTI-55, HEK-293 membranes); conditions: recombinant HEK-293 membranes, [125I]RTI-55; read-out: Binding Affinity (IC50, nM) SERT
hSERT, sequence (P31645 whole entry): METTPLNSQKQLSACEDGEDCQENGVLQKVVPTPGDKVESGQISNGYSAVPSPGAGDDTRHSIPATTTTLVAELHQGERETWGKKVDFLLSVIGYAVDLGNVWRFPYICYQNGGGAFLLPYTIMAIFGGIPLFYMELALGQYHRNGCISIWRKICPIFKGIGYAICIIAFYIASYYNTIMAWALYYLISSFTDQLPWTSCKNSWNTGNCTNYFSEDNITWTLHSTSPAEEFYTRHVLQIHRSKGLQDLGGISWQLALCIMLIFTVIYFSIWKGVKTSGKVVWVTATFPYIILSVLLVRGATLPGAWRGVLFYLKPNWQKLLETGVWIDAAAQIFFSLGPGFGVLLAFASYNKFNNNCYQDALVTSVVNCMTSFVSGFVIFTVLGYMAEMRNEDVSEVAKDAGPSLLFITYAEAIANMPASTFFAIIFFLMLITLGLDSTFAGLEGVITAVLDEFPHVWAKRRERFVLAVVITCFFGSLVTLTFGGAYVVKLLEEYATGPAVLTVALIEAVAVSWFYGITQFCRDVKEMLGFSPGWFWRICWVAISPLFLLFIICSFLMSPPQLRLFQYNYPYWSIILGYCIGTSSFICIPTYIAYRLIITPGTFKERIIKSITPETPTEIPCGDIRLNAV

[4] = biological target: hDAT (Homo sapiens (Human), UniProt Q01959); assay: DAT radioligand binding assay ([125I]RTI-55, HEK-293 membranes); conditions: recombinant HEK-293 membranes, [125I]RTI-55; read-out: Binding Affinity (IC50, nM) DAT
hDAT, sequence (Q01959 whole entry): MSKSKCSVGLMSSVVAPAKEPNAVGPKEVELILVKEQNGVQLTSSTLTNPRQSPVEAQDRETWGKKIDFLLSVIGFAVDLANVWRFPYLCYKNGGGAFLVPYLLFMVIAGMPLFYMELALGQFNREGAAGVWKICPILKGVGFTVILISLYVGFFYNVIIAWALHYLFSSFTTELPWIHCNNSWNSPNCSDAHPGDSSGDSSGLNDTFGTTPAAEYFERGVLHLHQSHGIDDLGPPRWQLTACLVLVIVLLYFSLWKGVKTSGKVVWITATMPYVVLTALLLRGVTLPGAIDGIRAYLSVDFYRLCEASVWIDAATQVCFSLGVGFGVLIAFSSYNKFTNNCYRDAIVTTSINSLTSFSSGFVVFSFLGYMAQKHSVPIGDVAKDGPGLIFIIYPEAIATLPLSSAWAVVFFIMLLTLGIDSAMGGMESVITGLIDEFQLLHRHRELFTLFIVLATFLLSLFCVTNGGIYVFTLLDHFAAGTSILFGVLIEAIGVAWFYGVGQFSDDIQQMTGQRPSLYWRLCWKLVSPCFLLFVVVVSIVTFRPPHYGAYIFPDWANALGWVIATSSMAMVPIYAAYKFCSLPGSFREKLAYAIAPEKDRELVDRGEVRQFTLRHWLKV

[5] = tested on: SERT; assay: Ex vivo transporter occupancy assay, SERT ([3H]citalopram, brain tissue); format: in vivo; conditions: dosed orally, time until sacrifice 3 h
From the text: as §1, §2
On the day of ex vivo binding for occupancy assessment, frozen sample aliquots were thawed and needle homogenized, and 100 μg of the tissue was incubated for SERT, NET, and DAT binding under assay conditions summarized in Table 1. After incubation, the reactions were terminated by the addition of ice-cold assay buffer and rapid filtration through a Brandel Cell Harvester using FPXLR-196 filters. The filters were washed twice with ice-cold incubation buffer, punched into a clear plate prior to the addition of 200 ul scintillation fluid per well. Radioligand was measured using a Wallac Microbeta liquid scintillation counter.
as §4

[6] = tested on: DAT; assay: Ex vivo transporter occupancy assay, DAT ([125I]RTI-55, brain tissue); format: in vivo; conditions: dosed orally, time until sacrifice 3 h
From the text: as §1, §2, §3, §4

Row | SMILES | IC50 [1] [nM] | % Occupancy NET ([2]; 3 mg/kg) [%] | IC50 [3] [nM] | IC50 [4] [nM] | % Occupancy SERT ([5]; 3 mg/kg) [%] | % Occupancy DAT ([6]; 3 mg/kg) [%] | % Occupancy NET ([2]; 1 mg/kg) [%] | % Occupancy SERT ([5]; 1 mg/kg) [%] | % Occupancy DAT ([6]; 1 mg/kg) [%]
1 | FC(F)Oc1ccc(-c2ccc3c(c2)CN2CCC3(c3ccc(Cl)cc3)C2)nn1 (single isomer, unassigned) [6(−), 5-(4-chlorophenyl)-8(6-(difluoromethoxy)pyridazin-3-yl)-2,5-methano-2,3,4,5-tetrahydro-1H-benzo[c]azepine] | 275 | 0 | 5.9 | 87.2 | 59 | 12 | – | – | –
2 | Oc1ccc(-c2ccc3c(c2)CN2CCC3(c3ccc(Cl)cc3)C2)nn1 (single isomer, unassigned) [7(−), 6-(5-(4-chlorophenyl)-2,5-methano-2,3,4,5-tetrahydro-1H-benzo[c]azepin-8-yl)pyridazin-3-ol] | 103 | – | 6.4 | 16.6 | – | – | 46 | 70 | 1
3 | FC(F)Oc1ccc(-c2ccc3c(c2)CN2CCC3(c3ccc(Cl)cc3)CC2)nn1 [Example 14, 5-(4-chlorophenyl)-8-(6-(difluoromethoxy)pyridazin-3-yl)-2,5-ethano-2,3,4,5-tetrahydro-1H-2-benzo[c]azepine] | 264 | 0 | 1.1 | 57.3 | 79 | 12 | – | – | –
4 | Clc1ccc(C23CCN(CC2)Cc2cc(-c4cnccn4)ccc23)cc1 [Example 17, 5-(4-chlorophenyl)-2,5-ethano-8-(pyrazin-2-yl)-2,3,4,5-tetrahydro-1H-benzo[c]azepine] | 2300 | – | 5.3 | 83.5 | – | – | 12 | 77 | 0
5 | Nc1cnc(-c2ccc3c(c2)CN2CCC3(c3ccc(Cl)cc3)CC2)cn1 [Example 18, 5-(5-(4-chlorophenyl)-2,5-ethano-2,3,4,5-tetrahydro-1H-benzo[c]azepin-8-yl)pyrazin-2-amine] | 925 | 6 | 3.5 | 47.6 | 89 | 15 | – | – | –
6 | O=C1NC2C=CC(c3ccc4c(c3)CN3CCC4(c4ccc(Cl)cc4)CC3)=CC2O1 (stereo not drawn) [Example 22, 6-(5-(4-chlorophenyl)-2,5-ethano-2,3,4,5-tetrahydro-1H-benzo[c]azepin-8-yl)-3,3a-dihydrobenzo[d]oxazol-2(7aH)-one] | 806 | 0 | 3.4 | 58.6 | 60 | 5 | – | – | –
7 | CS(=O)(=O)c1ccc(-c2ccc3c(c2)CN2CCC3(c3ccc(Cl)cc3)CC2)cc1 [Example 26, 5-(4-chlorophenyl)-2,5-ethano-8-(4-(methylsulfonyl)phenyl)-2,3,4,5-tetrahydro-1H-benzo[c]azepine] | 432 | – | 7.2 | 63 | – | – | 0 | 14 | 3
8 | FC(F)(F)c1ccc(Oc2ccc3c(c2)CN2CCC3(c3ccc(Cl)cc3)CC2)nn1 [Example 32, 5-(4-chlorophenyl)-2,5-ethano-8-(6-(trifluoromethyl)pyridazin-3-yloxy)-2,3,4,5-tetrahydro-1H-benzo[c]azepine] | 124 | 0 | 4.3 | 36.5 | 74 | 42 | – | – | –
9 | Nc1cnc(-c2ccc3c(c2)CN2CCC3(c3ccc(Cl)c(Cl)c3)CC2)cn1 [Example 42, 5-(5-(3,4-dichlorophenyl)-2,5-ethano-2,3,4,5-tetrahydro-1H-benzo[c]azepin-8-yl)pyrazin-2-amine] | 155 | 39 | 5.9 | 9.2 | 82 | 54 | – | – | –
10 | FC(F)(F)c1ccc(Oc2ccc3c(c2)CN2CCC3(c3ccc(Cl)c(Cl)c3)CC2)nn1 [Example 45, 5-(3,4-dichlorophenyl)-2,5-ethano-8-(6-(trifluoromethyl)pyridazin-3-yloxy)-2,3,4,5-tetrahydro-1H-benzo[c]azepine] | 35.1 | – | 4.8 | 0.7 | – | – | 0 | 46 | 17
11 | Fc1ccc(C23CCN(CC2)Cc2cc(Oc4ccc(C(F)(F)F)nn4)ccc23)cc1Cl [Example 47, 5-(3-chloro-4-fluorophenyl)-2,5-ethano-8-(6-(trifluoromethyl)pyridazin-3-yloxy)-2,3,4,5-tetrahydro-1H-benzo[c]azepine] | 112 | – | 6.4 | 9 | – | – | 0 | 34 | 17
12 | Fc1cc(C23CCN(CC2)Cc2cc(Oc4ccc(C(F)(F)F)nn4)ccc23)ccc1Cl [Example 48, 5-(4-chloro-3-fluorophenyl)-2,5-ethano-8-(6-(trifluoromethyl)pyridazin-3-yloxy)-2,3,4,5-tetrahydro-1H-benzo[c]azepine] | 134 | – | 7.2 | 10.1 | – | – | 0 | 21 | 12
